Results taken from article PMC5218480 (PLoS ONE, 2017).

System: MV-4-11 cells
Test: Gene expression microarray analysis (Affymetrix PrimeView) and GSEA
Assay type: cell-based, human
Parameters: RFU PODN (11730768_x_at) / Fold change /veh PODN (11730768_x_at) / RFU LINC00158 (11744669_a_at) / Fold change /veh LINC00158 (11744669_a_at) / RFU DUSP10 (11751237_a_at) / Fold change /veh DUSP10 (11751237_a_at) / RFU ID3 (11757404_x_at) / Fold change /veh ID3 (11757404_x_at) / RFU PLEKHG5 (11737974_s_at) / Fold change /veh PLEKHG5 (11737974_s_at) / RFU LRRC4B (11730491_at) / Fold change /veh LRRC4B (11730491_at) / RFU GIMAP4 (11747438_a_at) / Fold change /veh GIMAP4 (11747438_a_at) / RFU KRT8 (11758183_x_at) / Fold change /veh KRT8 (11758183_x_at) / RFU CNN1 (11734310_a_at) / Fold change /veh CNN1 (11734310_a_at) / RFU VPS37D (11726825_at) / Fold change /veh VPS37D (11726825_at) / RFU C10orf10 (11716522_x_at) / Fold change /veh C10orf10 (11716522_x_at) / RFU KIR2DL2 /// KIR2DL4 /// KIR2DL5A /// KIR2DL5B /// KIR2DS1 /// KIR2DS2 /// KIR2DS3 /// KIR2DS4 /// KIR3DL3 /// KIR3DL3 /// KIR3DS1 (11738374_at) / Fold change /veh KIR2DL2 /// KIR2DL4 /// KIR2DL5A /// KIR2DL5B /// KIR2DS1 /// KIR2DS2 /// KIR2DS3 /// KIR2DS4 /// KIR3DL3 /// KIR3DL3 /// KIR3DS1 (11738374_at) / RFU C1QL1 (11718748_at) / Fold change /veh C1QL1 (11718748_at) / RFU TMPRSS4 (11747572_a_at) / Fold change /veh TMPRSS4 (11747572_a_at) / RFU HAMP (11756126_x_at) / Fold change /veh HAMP (11756126_x_at) / RFU RNFT2 (11725882_a_at) / Fold change /veh RNFT2 (11725882_a_at) / RFU NR4A2 (11747474_a_at) / Fold change /veh NR4A2 (11747474_a_at) / RFU ABCC12 (11746883_a_at) / Fold change /veh ABCC12 (11746883_a_at) / RFU TMEM136 (11760407_x_at) / Fold change /veh TMEM136 (11760407_x_at) / RFU CLDN22 /// WWC2 (11732394_at) / Fold change /veh CLDN22 /// WWC2 (11732394_at) / RFU HLA-DPB1 (11760878_x_at) / Fold change /veh HLA-DPB1 (11760878_x_at) / RFU SPINT1 (11716480_a_at) / Fold change /veh SPINT1 (11716480_a_at) / RFU GAP43 (11754022_s_at) / Fold change /veh GAP43 (11754022_s_at) / RFU A4GNT (11735810_at) / Fold change /veh A4GNT (11735810_at) / RFU PRB3 (11715151_x_at) / Fold change /veh PRB3 (11715151_x_at) / RFU TUBB4B (11761932_at) / Fold change /veh TUBB4B (11761932_at) / RFU CAPN14 (11732068_a_at) / Fold change /veh CAPN14 (11732068_a_at) / RFU TMCC2 (11721928_a_at) / Fold change /veh TMCC2 (11721928_a_at) / RFU IRGQ (11745062_a_at) / Fold change /veh IRGQ (11745062_a_at) / RFU FAM174B (11720279_a_at) / Fold change /veh FAM174B (11720279_a_at) / RFU TMPRSS4 (11748680_a_at) / Fold change /veh TMPRSS4 (11748680_a_at) / RFU FAM212B (11763350_a_at) / Fold change /veh FAM212B (11763350_a_at) / RFU PLEKHG5 (11743358_a_at) / Fold change /veh PLEKHG5 (11743358_a_at) / RFU ZSCAN30 (11745921_a_at) / Fold change /veh ZSCAN30 (11745921_a_at) / RFU CMKLR1 (11741424_a_at) / Fold change /veh CMKLR1 (11741424_a_at) / RFU LOC101060620 /// MAPK8IP1 (11723275_at) / Fold change /veh LOC101060620 /// MAPK8IP1 (11723275_at) / RFU SPTSSB (11747773_x_at) / Fold change /veh SPTSSB (11747773_x_at) / RFU PRSS12 (11739890_at) / Fold change /veh PRSS12 (11739890_at) / RFU BIN1 (11741810_x_at) / Fold change /veh BIN1 (11741810_x_at) / RFU WNT11 (11732464_a_at) / Fold change /veh WNT11 (11732464_a_at) / RFU C10orf10 (11716521_a_at) / Fold change /veh C10orf10 (11716521_a_at) / RFU C5orf56 (11738089_at) / Fold change /veh C5orf56 (11738089_at) / RFU CYB561 (11721691_x_at) / Fold change /veh CYB561 (11721691_x_at) / RFU ANKRD19P (11752326_a_at) / Fold change /veh ANKRD19P (11752326_a_at) / RFU OR2T12 /// OR2T33 /// OR2T8 (11738714_s_at) / Fold change /veh OR2T12 /// OR2T33 /// OR2T8 (11738714_s_at) / RFU VCAN (11748164_a_at) / Fold change /veh VCAN (11748164_a_at) / RFU JSRP1 (11732532_at) / Fold change /veh JSRP1 (11732532_at) / RFU KRTAP10-11 (11738290_x_at) / Fold change /veh KRTAP10-11 (11738290_x_at) / RFU MYO3A (11730013_a_at) / Fold change /veh MYO3A (11730013_a_at) / RFU EBF3 (11725865_a_at) / Fold change /veh EBF3 (11725865_a_at) / RFU CAMK2N1 (11719241_x_at) / Fold change /veh CAMK2N1 (11719241_x_at) / RFU C5orf56 (11738088_a_at) / Fold change /veh C5orf56 (11738088_a_at) / RFU OLFML3 (11715873_a_at) / Fold change /veh OLFML3 (11715873_a_at) / RFU LOC100653217 /// NTM (11731650_a_at) / Fold change /veh LOC100653217 /// NTM (11731650_a_at) / RFU MAPK11 (11762145_a_at) / Fold change /veh MAPK11 (11762145_a_at) / RFU FIZ1 (11724087_x_at) / Fold change /veh FIZ1 (11724087_x_at) / RFU OASL (11726364_x_at) / Fold change /veh OASL (11726364_x_at) / RFU SOX15 (11748057_x_at) / Fold change /veh SOX15 (11748057_x_at) / RFU CD79A (11719716_a_at) / Fold change /veh CD79A (11719716_a_at) / RFU HIST1H1D (11736915_at) / Fold change /veh HIST1H1D (11736915_at) / RFU CASKIN2 (11723855_a_at) / Fold change /veh CASKIN2 (11723855_a_at) / RFU LOC730098 (11760151_x_at) / Fold change /veh LOC730098 (11760151_x_at) / RFU OR4N2 (11742367_at) / Fold change /veh OR4N2 (11742367_at) / RFU PRRT2 (11749266_a_at) / Fold change /veh PRRT2 (11749266_a_at) / RFU SNX32 (11753110_a_at) / Fold change /veh SNX32 (11753110_a_at) / RFU CDHR5 (11726645_a_at) / Fold change /veh CDHR5 (11726645_a_at) / RFU RCAN1 (11760418_a_at) / Fold change /veh RCAN1 (11760418_a_at) / RFU FAM167A (11723789_a_at) / Fold change /veh FAM167A (11723789_a_at) / RFU FAM26E (11764081_at) / Fold change /veh FAM26E (11764081_at) / RFU ISYNA1 (11749810_s_at) / Fold change /veh ISYNA1 (11749810_s_at) / RFU ACY1 (11761880_at) / Fold change /veh ACY1 (11761880_at) / RFU 11764098_at / Fold change /veh 11764098_at / RFU SAMD14 (11745864_x_at) / Fold change /veh SAMD14 (11745864_x_at) / RFU NPB (11741838_a_at) / Fold change /veh NPB (11741838_a_at) / RFU TMPRSS6 (11731388_a_at) / Fold change /veh TMPRSS6 (11731388_a_at) / RFU KRTAP10-2 (11738614_at) / Fold change /veh KRTAP10-2 (11738614_at) / RFU ARHGAP8 /// PRR5-ARHGAP8 (11727945_x_at) / Fold change /veh ARHGAP8 /// PRR5-ARHGAP8 (11727945_x_at) / RFU KRTAP5-7 /// NADSYN1 (11734609_at) / Fold change /veh KRTAP5-7 /// NADSYN1 (11734609_at) / RFU RASL12 (11751679_a_at) / Fold change /veh RASL12 (11751679_a_at) / RFU CDKN2B (11736163_a_at) / Fold change /veh CDKN2B (11736163_a_at) / RFU PRF1 (11729649_at) / Fold change /veh PRF1 (11729649_at) / RFU, ZNF638 /// ZNF638-IT1 / Fold change vs veh, ZNF638 /// ZNF638-IT1 / RFU, PANK3 / Fold change vs veh, PANK3 / RFU, SH3YL1 / Fold change vs veh, SH3YL1 / RFU, ZEB2 / Fold change vs veh, ZEB2 / RFU, NRIP1 / Fold change vs veh, NRIP1 / RFU, PTTG1IP / Fold change vs veh, PTTG1IP / RFU, CAPN2 / Fold change vs veh, CAPN2 / RFU, MED14 / Fold change vs veh, MED14 / RFU, SNORA58 / Fold change vs veh, SNORA58 / RFU, C1orf63 / Fold change vs veh, C1orf63 / RFU, LRRFIP1 / Fold change vs veh, LRRFIP1 / RFU, NDUFAF7 / Fold change vs veh, NDUFAF7 / RFU, SLC12A2 / Fold change vs veh, SLC12A2 / RFU, IBTK / Fold change vs veh, IBTK / RFU, ESF1 / Fold change vs veh, ESF1 / Fold change vs veh, TMEM50B / RFU, TAOK1 / Fold change vs veh, TAOK1 / RFU, ACBD3 / Fold change vs veh, ACBD3 / RFU, TMA16 / Fold change vs veh, TMA16 / RFU, RWDD3 / Fold change vs veh, RWDD3 / RFU, BCAT1 / Fold change vs veh, BCAT1 / RFU, EDEM3 / Fold change vs veh, EDEM3 / RFU, TMEM33 / Fold change vs veh, TMEM33 / RFU, WDR75 / Fold change vs veh, WDR75 / RFU, AHCTF1 / Fold change vs veh, AHCTF1 / RFU, TFRC / Fold change vs veh, TFRC / RFU, ZDHHC17 / Fold change vs veh, ZDHHC17 / RFU, NOM1 / Fold change vs veh, NOM1 / RFU, ARL8B / Fold change vs veh, ARL8B / RFU, ZBTB11 / Fold change vs veh, ZBTB11 / RFU, TAMM41 / Fold change vs veh, TAMM41 / RFU, KIAA1704 /// LOC100996395 / Fold change vs veh, KIAA1704 /// LOC100996395 / RFU, ING1 / Fold change vs veh, ING1 / RFU, TRMT61B / Fold change vs veh, TRMT61B / RFU, FUBP3 / Fold change vs veh, FUBP3 / RFU, TP53 / Fold change vs veh, TP53 / RFU, TNKS2 / Fold change vs veh, TNKS2 / RFU, ZFP14 / Fold change vs veh, ZFP14 / RFU, ACTR2 / Fold change vs veh, ACTR2 / RFU, PPP3R1 / Fold change vs veh, PPP3R1 / RFU, PIK3R1 / Fold change vs veh, PIK3R1 / RFU, HNRNPA1 / Fold change vs veh, HNRNPA1 / RFU, RNF170 / Fold change vs veh, RNF170 / RFU, ZNF28 / Fold change vs veh, ZNF28 / RFU, RNGTT / Fold change vs veh, RNGTT / RFU, OGT / Fold change vs veh, OGT / RFU, BRD1 / Fold change vs veh, BRD1 / RFU, MARS / Fold change vs veh, MARS / RFU, ZNF655 / Fold change vs veh, ZNF655 / RFU, FAHD1 / Fold change vs veh, FAHD1 / RFU, BDP1 / Fold change vs veh, BDP1 / RFU, LRRCC1 / Fold change vs veh, LRRCC1 / RFU, ARID1A / Fold change vs veh, ARID1A / RFU, ZNF146 / Fold change vs veh, ZNF146 / RFU, ZNF330 / Fold change vs veh, ZNF330 / RFU, GPN3 / Fold change vs veh, GPN3 / RFU, C9orf123 / Fold change vs veh, C9orf123 / RFU, N4BP2L2 / Fold change vs veh, N4BP2L2 / RFU, ARFIP1 / Fold change vs veh, ARFIP1 / RFU, FAM179B / Fold change vs veh, FAM179B / RFU, BCL10 / Fold change vs veh, BCL10 / RFU, UHRF1BP1L / Fold change vs veh, UHRF1BP1L / RFU, BET1 / Fold change vs veh, BET1 / RFU, CNOT2 / Fold change vs veh, CNOT2 / RFU, ZNF268 / Fold change vs veh, ZNF268 / Fold change vs veh, ZNF507 / RFU, DGCR2 / Fold change vs veh, DGCR2 / RFU, WDSUB1 / Fold change vs veh, WDSUB1 / Fold change vs veh, HSP90B1 /// MIR3652 / RFU, ADSS / Fold change vs veh, ADSS / RFU, GK / Fold change vs veh, GK / RFU, ZNF148 / Fold change vs veh, ZNF148 / RFU, TAF9 / Fold change vs veh, TAF9 / RFU, SLC1A5 / Fold change vs veh, SLC1A5 / RFU, SLMO2 / Fold change vs veh, SLMO2 / RFU, ABCC4 / Fold change vs veh, ABCC4 / RFU, LOC101060439 /// RAP1B / Fold change vs veh, LOC101060439 /// RAP1B / RFU, RFX7 / Fold change vs veh, RFX7 / RFU, GTPBP10 / Fold change vs veh, GTPBP10 / RFU, CNEP1R1 / Fold change vs veh, CNEP1R1 / RFU, BIVM-ERCC5 /// ERCC5 / Fold change vs veh, BIVM-ERCC5 /// ERCC5 / RFU, ILF3 / Fold change vs veh, ILF3 / RFU 11762660_at / Fold change /veh 11762660_at / RFU VCAN (11757783_s_at) / Fold change /veh VCAN (11757783_s_at) / RFU DDX43 (11728927_at) / Fold change /veh DDX43 (11728927_at) / RFU KRT8 (11758188_x_at) / Fold change /veh KRT8 (11758188_x_at) / RFU NKD1 (11759106_at) / Fold change /veh NKD1 (11759106_at) / RFU SRD5A1 (11742802_a_at) / Fold change /veh SRD5A1 (11742802_a_at) / RFU TPSAB1 /// TPSB2 (11721975_s_at) / Fold change /veh TPSAB1 /// TPSB2 (11721975_s_at) / RFU GSTM3 (11746129_a_at) / Fold change /veh GSTM3 (11746129_a_at) / RFU IL23R (11737362_x_at) / Fold change /veh IL23R (11737362_x_at) / RFU TMEM51 (11727254_a_at) / Fold change /veh TMEM51 (11727254_a_at) / RFU PIWIL2 (11732686_x_at) / Fold change /veh PIWIL2 (11732686_x_at) / RFU ORM1 (11744905_x_at) / Fold change /veh ORM1 (11744905_x_at) / RFU CCDC152 (11743942_at) / Fold change /veh CCDC152 (11743942_at) / RFU ECM1 (11717891_a_at) / Fold change /veh ECM1 (11717891_a_at) / RFU IL23R (11748794_a_at) / Fold change /veh IL23R (11748794_a_at) / RFU TNFAIP8L3 (11732012_x_at) / Fold change /veh TNFAIP8L3 (11732012_x_at) / RFU MBOAT4 (11741988_at) / Fold change /veh MBOAT4 (11741988_at) / RFU 11764193_at / Fold change /veh 11764193_at / RFU TMEM53 (11763286_at) / Fold change /veh TMEM53 (11763286_at) / RFU MAGEB2 (11727129_at) / Fold change /veh MAGEB2 (11727129_at) / RFU TMEM200A (11744735_a_at) / Fold change /veh TMEM200A (11744735_a_at) / RFU CCDC152 (11751479_a_at) / Fold change /veh CCDC152 (11751479_a_at) / RFU FAM211A (11726209_a_at) / Fold change /veh FAM211A (11726209_a_at) / RFU RGS16 (11746705_a_at) / Fold change /veh RGS16 (11746705_a_at) / RFU VCAN (11755009_s_at) / Fold change /veh VCAN (11755009_s_at) / RFU RHOB (11743442_s_at) / Fold change /veh RHOB (11743442_s_at) / RFU RGS16 (11720943_a_at) / Fold change /veh RGS16 (11720943_a_at) / RFU RGS16 (11720944_at) / Fold change /veh RGS16 (11720944_at) / RFU, VPS4B / Fold change vs veh, VPS4B / RFU, CREB1 / Fold change vs veh, CREB1 / RFU, DNAJC13 / Fold change vs veh, DNAJC13 / RFU, GNAQ / Fold change vs veh, GNAQ / RFU, CDK5R1 / Fold change vs veh, CDK5R1 / RFU, ZRANB3 / Fold change vs veh, ZRANB3 / RFU, CUL4A / Fold change vs veh, CUL4A / RFU, CCNY / Fold change vs veh, CCNY / RFU, UFL1 / Fold change vs veh, UFL1 / RFU, COG3 / Fold change vs veh, COG3 / RFU, DIAPH2 / Fold change vs veh, DIAPH2 / RFU, SKA2 / Fold change vs veh, SKA2 / RFU, AFF3 / Fold change vs veh, AFF3 / RFU, LMF1 / Fold change vs veh, LMF1 / RFU, IPO11 / Fold change vs veh, IPO11 / RFU, DFFB / Fold change vs veh, DFFB / RFU, FOXP1 / Fold change vs veh, FOXP1 / RFU, CARD8 / Fold change vs veh, CARD8 / RFU, STRN3 / Fold change vs veh, STRN3 / RFU, ADK / Fold change vs veh, ADK / RFU, RASSF2 / Fold change vs veh, RASSF2 / RFU, WIPF1 / Fold change vs veh, WIPF1 / RFU, LARP1B / Fold change vs veh, LARP1B / RFU, RASA1 / Fold change vs veh, RASA1 / RFU, RB1 / Fold change vs veh, RB1 / RFU, PPFIA1 / Fold change vs veh, PPFIA1 / RFU, MAT2A / Fold change vs veh, MAT2A / RFU, CCT5 / Fold change vs veh, CCT5 / RFU, WDR92 / Fold change vs veh, WDR92 / RFU, CUX1 / Fold change vs veh, CUX1 / RFU, TTC7A / Fold change vs veh, TTC7A / RFU, TMEM135 / Fold change vs veh, TMEM135 / RFU, DEPTOR / Fold change vs veh, DEPTOR / RFU, CPM / Fold change vs veh, CPM / RFU, DNAJB6 / Fold change vs veh, DNAJB6 / RFU, CACNA2D3 / Fold change vs veh, CACNA2D3 / RFU, DTX4 / Fold change vs veh, DTX4 / RFU, TFCP2 / Fold change vs veh, TFCP2 / RFU, GMCL1 /// GMCL1P1 / Fold change vs veh, GMCL1 /// GMCL1P1 / RFU, AEBP2 / Fold change vs veh, AEBP2 / RFU, SNHG1 /// SNORD22 /// SNORD25 /// SNORD26 /// SNORD27 /// SNORD28 /// SNORD29 /// SNORD31 / Fold change vs veh, SNHG1 /// SNORD22 /// SNORD25 /// SNORD26 /// SNORD27 /// SNORD28 /// SNORD29 /// SNORD31 / Fold change (Aza/veh), C12orf56 (ProbeSet 11735607_a_at) / Fold change (ACY-1035/veh), C12orf56 (ProbeSet 11735607_a_at) / Fold change (Aza/veh), FGFR1OP (ProbeSet 11751329_s_at) / Fold change (ACY-1035/veh), FGFR1OP (ProbeSet 11751329_s_at) / Fold change (Aza/veh), VPS36 (ProbeSet 11739960_a_at) / Fold change (ACY-1035/veh), VPS36 (ProbeSet 11739960_a_at) / RFU SYPL1 (11715823_x_at) / Fold change /veh SYPL1 (11715823_x_at) / RFU IGFBP7 (11715501_s_at) / Fold change /veh IGFBP7 (11715501_s_at) / RFU REEP3 (11722064_at) / Fold change /veh REEP3 (11722064_at) / RFU IGLL1 (11728026_x_at) / Fold change /veh IGLL1 (11728026_x_at): dose or concentration left out as unconfirmed
Settings: ProbeSet 11719817_x_at; LIST B

Question: For `Nc1ccc(-c2cccs2)cc1NC(=O)c1ccc2c(c1)cc(C1CC1)n2CCN1CCOCC1` [ACY-1035], which “Fold change vs veh, BET1” value is on record?
Answer: 0.95
